Assay results as given in the supplement of paper PMC10307832.

Columns and labels:
Test in all cases: relative viability (nuclei count vs DMSO), 5 days (fraction); higher = more cells survive
[1] = compound: Cc1ccc(C(=O)N(CCCN)[C@@H](c2nc3cc(Cl)ccc3c(=O)n2Cc2ccccc2)C(C)C)cc1 [Ispinesib]
In short: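 Acceptance criteria were a control CV below 25% and at least one doubling per plate. Lung cancer cell lines in 1536-well plates got five library-drug doses (not always all listed) √10 apart by pinning and were left 5 days with no medium change. Viability divides treated-well nuclei by vehicle-well nuclei and is the median across plates. Nuclei were counted by MetaXpress from 4× Hoechst images.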

[2] = compound: Cc1ccc(C(=O)N(CCCN)[C@@H](c2nc3cc(Cl)ccc3c(=O)n2Cc2ccccc2)C(C)C)cc1 [Ispinesib] + Cc1cc(Nc2cc(N3CCN(C)CC3)nc(Sc3ccc(NC(=O)C4CC4)cc3)n2)n[nH]1 [Tozasertib] (partner 0.1 µM)
In short: (§1)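 For relative viability, nuclei counts in treated wells were divided by those in vehicle wells. Lung cancer cell lines had been pin-tool dosed in 1536-well plates the day after seeding and cultured for 5 days, then fixed and stained in one step (final 0.05% Triton X-100, 1% formaldehyde, 1 ug/ml Hoechst) and imaged at 4×. Doses were one drug alone or a fixed anchor-drug dose plus five library-drug doses (not always all listed) in √10 steps, and values are duplicate-plate medians.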

[3] = compound: C[C@]1(O)C[C@@H](c2nc(-c3ccc4ccc(-c5ccccc5)nc4c3)c3c(N)nccn32)C1 [Linsitinib] + N=C(N)NC(=N)NCCc1ccccc1 [Phenformin] (partner 250 µM)
In short: as §1

[4] = compound: Cc1ccc(C(=O)N(CCCN)[C@@H](c2nc3cc(Cl)ccc3c(=O)n2Cc2ccccc2)C(C)C)cc1 [Ispinesib] + CS(=O)(=O)CCNCc1ccc(-c2ccc3ncnc(Nc4ccc(OCc5cccc(F)c5)c(Cl)c4)c3c2)o1 [Lapatinib] (partner 2 µM)
In short: as §1

| Cell Line | relative viability ([1]; 0.001 µM) | relative viability ([1]; 0.003162 µM) | relative viability ([1]; 0.01 µM) | relative viability ([1]; 0.03162 µM) | relative viability ([1]; 0.1 µM) | relative viability ([2]; first compound 0.001 µM) | relative viability ([2]; first compound 0.003162 µM) | relative viability ([2]; first compound 0.01 µM) | relative viability ([2]; first compound 0.03162 µM) | relative viability ([2]; first compound 0.1 µM) | relative viability ([3]; first compound 0.01 µM) | relative viability ([3]; first compound 0.03162 µM) | relative viability ([3]; first compound 0.1 µM) | relative viability ([3]; first compound 0.3162 µM) | relative viability ([3]; first compound 1 µM) | relative viability ([4]; first compound 0.001 µM) | relative viability ([4]; first compound 0.003162 µM) | relative viability ([4]; first compound 0.01 µM) | relative viability ([4]; first compound 0.03162 µM) | relative viability ([4]; first compound 0.1 µM) |
| --- | --- | --- | --- | --- | --- | --- | --- | --- | --- | --- | --- | --- | --- | --- | --- | --- | --- | --- | --- | --- |
| 201T | 0.978 | 1.05 | 1.03 | 0.786 | 0.367 | 0.919 | 0.979 | 0.998 | 0.999 | 0.587 | 0.405 | 0.475 | 0.434 | 0.449 | 0.338 | 1.06 | 1.07 | 1.1 | 0.916 | 0.431 |
| A549 | 1.1 | 0.983 | 1.31 | 0.568 | 0.109 | – | – | – | – | – | 0.2 | 0.264 | 0.173 | 0.0926 | 0.151 | 1.07 | 1.07 | 0.952 | 0.172 | 0.127 |
| A-427 | 1.05 | 1.11 | 0.955 | 0.261 | 0.246 | 0.203 | 0.216 | 0.189 | 0.185 | 0.23 | 0.383 | 0.321 | 0.301 | – | 0.233 | 1.09 | 1.07 | 1.13 | 0.406 | 0.162 |
| ABC-1 | 1.01 | 1.01 | 0.979 | 0.314 | 0.367 | 0.197 | 0.174 | 0.21 | 0.182 | 0.184 | 0.241 | 0.209 | 0.238 | 0.237 | 0.233 | 1.06 | 1.18 | 1.19 | 1.03 | 0.766 |
| BEN | 1.12 | 1.1 | 0.983 | 0.647 | 0.378 | 0.508 | 0.464 | 0.548 | 0.633 | 0.574 | 0.28 | 0.24 | 0.245 | – | 0.292 | 0.906 | 0.892 | 0.7 | 0.357 | 0.247 |
| Calu-6 | 1.15 | 0.996 | 0.689 | 0.18 | 0.19 | – | – | – | – | – | – | – | – | – | – | 1.24 | 0.955 | 0.526 | 0.217 | 0.256 |
| ChaGo-K-1 | 1.05 | 1.06 | 1.12 | 0.91 | 0.354 | 0.22 | 0.225 | 0.234 | 0.248 | 0.222 | 0.527 | 0.515 | 0.499 | 0.332 | 0.457 | – | – | – | – | – |
| EBC-1 | 1.03 | 1.13 | 1.03 | 0.336 | 0.231 | – | – | – | – | – | – | – | – | – | – | 0.203 | 0.204 | 0.223 | 0.13 | 0.193 |
| IA-LM | 1.02 | 1.15 | 1.22 | 0.952 | 0.197 | – | – | – | – | – | – | – | – | – | – | 0.833 | 1.03 | 0.513 | 0.123 | 0.197 |
| LCLC-103H | 1.05 | 1.07 | 1.04 | 0.691 | 0.601 | 0.5 | 0.608 | 0.584 | 0.382 | 0.485 | 0.397 | 0.344 | 0.324 | 0.327 | 0.303 | – | – | – | – | – |
| NCI-H441 | 1.06 | 1.1 | 0.765 | 0.272 | 0.297 | 0.681 | 0.603 | 0.673 | 0.258 | 0.341 | 0.944 | 0.966 | 0.675 | 0.442 | 0.298 | – | – | – | – | – |
| NCI-H522 | 0.965 | 1.13 | 1 | 0.815 | 0.48 | 0.562 | 0.508 | 0.542 | 0.557 | 0.702 | 0.589 | 0.662 | 0.567 | – | 0.613 | – | – | – | – | – |
| NCI-H1299 | 1.05 | 1.05 | 1.07 | 1.05 | 0.461 | – | – | – | – | – | – | – | – | – | – | 1.02 | 0.988 | 0.979 | 0.813 | 0.3 |
| NCI-H1563 | 1.13 | 0.97 | 0.938 | 0.927 | 0.772 | – | – | – | – | – | 0.68 | 0.647 | 0.658 | 0.834 | 0.621 | 1.03 | 0.956 | 0.928 | 0.686 | 0.624 |
| NCI-H1623 | 1.07 | 1.03 | 1.05 | 1.02 | 0.722 | 0.404 | 0.719 | 0.473 | 0.394 | 0.324 | 0.628 | 0.618 | 0.581 | – | 0.519 | – | – | – | – | – |
| NCI-H1648 | 1.02 | 1.13 | 0.792 | 1.14 | 0.387 | 0.532 | 0.484 | 0.394 | 0.498 | 0.44 | – | – | – | – | – | – | – | – | – | – |
| NCI-H1703 | 1.28 | 0.88 | 0.6 | 0.163 | 0.137 | – | – | – | – | – | – | – | – | – | – | 1.32 | 0.893 | 0.227 | 0.11 | 0.234 |
| NCI-H1792 | 1.18 | 1.31 | 0.995 | 0.492 | 0.329 | – | – | – | – | – | 0.453 | 0.419 | 0.29 | 0.166 | 0.073 | 0.876 | 1.05 | 0.843 | 0.418 | 0.314 |
| NCI-H2342 | 0.986 | 0.942 | 1.04 | 0.935 | 0.638 | 0.492 | 0.502 | 0.544 | 0.554 | 0.43 | 0.46 | 0.584 | 0.527 | 0.511 | 0.488 | – | – | – | – | – |
| SW 900 | 0.858 | 0.995 | 1.05 | 0.683 | 0.283 | 0.502 | 0.595 | 0.606 | 0.409 | 0.293 | 0.701 | 0.753 | 0.553 | 0.433 | 0.37 | – | – | – | – | – |
